Assays:
Assay type in all cases: cell-based, human
HEY ovarian cancer cells = assay: DNA synthesis / growth of HEY ovarian cancer cells with SPC and phage preparations; details: SPC 10 μM
Method: To determine if these selected phage clones were capable of blocking a biological effect of SPC, we mixed phage preparations with SPC. After a 30 min incubation, this mixture was added to HEY cells and its effect on SPC-induced cell proliferation was tested. If a phage clone was carrying a specific sequence which binds to SPC, the addition of the phage to SPC could block the effect of SPC on HEY cells.

TDAG8 = TDAG8 expression in Jurkat cells by real-time quantitative RT-PCR; details: 0.1 and 1 μM LPC, up to 24 hours
Method: (§1) Jurkat cells were treated with 0.1 and 1 μM LPC for various times (1, 2, 6, and 24 hours). At each time point, cells were collected and total RNA was extracted. Real-time quantitative PCR was utilized to determine relative amounts of GPR4 (shown in FIG. 1A and TDAG8 (shown in FIG. 1B) expressed under each condition. All PCR reactions were performed in triplicate.
(§2) In one scheme, total RNA is extracted from tissues using the RNeasy Total RNA System (Qiagen, Valencia, Calif.). One to five micrograms of total RNA are reverse transcribed using Superscript II RT (Gibco BRL, Rockville, Md.). Eight nanograms of derived cDNA are used as a template for real-time quantitative SYBR Green I PCR. Specific primers, that have already been established and used under these same conditions, are used for each individual receptor, with GAPDH being amplified in a separate tube as a housekeeping gene. The primers for GPR4 (Genbank accession number U2105 1) are 5′-[…]-3′ [SEQ ID NO. 1] and 5′-TCCAGTTGTCGTGGTGCAG-3′ [SEQ ID NO. 2] […] Amplified product is detected by measurement of SYBR Green I, which is added to the initial reaction mixture. […] The results are expressed as a fold-change in receptor expression levels compared to a baseline sample.
(§3) Jurkat cells were treated with 0.1 and 1 μM LPC for up to 24 hours followed by expression analysis of GPR4 and TDAG8 levels with real-time quantitative RT-PCR.

GPR4 = GPR4 expression in Jurkat cells by real-time quantitative RT-PCR; details: 0.1 and 1 μM LPC, up to 24 hours
Method: as §1, §2, §3

| Molecule | effect on DNA synthesis in HEY cells (HEY ovarian cancer cells) | regulation of TDAG8 expression (TDAG8) | regulation of GPR4 expression (GPR4) |
| --- | --- | --- | --- |
| CCCCCCCCCCCCC/C=C/[C@@H](O)[C@@H](N)COP(=O)([O-])OCC[N+](C)(C)C [SPC, Sphingosylphosphorylcholine] | inhibited DNA synthesis |  |  |
| lysophosphatidylcholine [LPC] |  | time- and dose-dependent up regulation | time- and dose-dependent up regulation |

Reference: patent publication US20020107197A1, “Ligands for G protein coupled receptors and methods of using them” (priority 2000, published 2002)
